# In patent US20020137929A1, “1 - (3-heterocyclylphenyl) isothiourea, -isourea, -guanidine and -amidine herbicidal agents” (Intellectual Property Department, BASF Aktiengesellschaft, priority 1998, published 2002):
# Columns and labels:
# [1] = system: AMBEL (Ragweed, Common); assay: Postemergence herbicidal evaluation; assay type: in vivo, Ambrosia artemisifolia; conditions: postemergence
# Outline: (§1)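 ~2-wk seedlings; postemergence spray, 40 psi; vehicle 1:1 acetone:water + 0.5% Tween 20; rate ≈0.0156–0.500 kg/ha; greenhouse hold; scored 4–5 wk after treatment, 0–9 scale vs control; repeat tests averaged.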
# [2] = system: GALAP (Galium); assay: Postemergence herbicidal evaluation; assay type: in vivo, Galium aparine; conditions: postemergence
# Outline: as §1
# [3] = system: IPOSS (Morningglory Spp.); assay: Postemergence herbicidal evaluation; assay type: in vivo, Ipomoea Spp.
# Protocol: In the tests, seedling plants are grown in jiffy flats for about two weeks. The test compounds are dispersed in 50/50 acetone/water mixtures containing 0.5% TWEEN®20, a polyoxyethylene sorbitan monolaurate surfactant of Atlas Chemical Industries, in sufficient quantities to provide the equivalent of about 0.0156 kg to 0.500 kg per hectare of active compound when applied to the plants through a spray nozzle operating at 40 psi for a predetermined time. After spraying, the plants are placed on greenhouse benches and are cared for in accordance with conventional greenhouse procedures. From four to five weeks after treatment, the seedling plants are examined and rated according to the rating system set forth below. Where more than one test is involved for a given compound, the data are averaged.
# Plant species employed in these evaluations are reported by header abbreviation, common name and scientific name.
# (§2) Results of herbicide evaluation are expressed on a rating scale (0-9). The scale is based upon a visual observation of plant stand, vigor, malformation, size, chlorosis and overall plant appearance as compared with a control.
# [4] = system: TRZAWR (Wheat, Winter, cv Riband); assay: Postemergence herbicidal evaluation; assay type: in vivo, Triticum aestivum; conditions: postemergence
# Outline: as §1
# [5] = system: CHEAL (Lambsquarters, Common); assay: Preemergence herbicidal evaluation; assay type: in vivo, Chenopodium album; conditions: rated 4-5 weeks after treatment; for CHEAL rating: preemergence, 0-9 scale
# Outline: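 Scores (0–9) reflect visual comparison with control plants for stand, vigor, malformation, size and chlorosis. Compound was applied to the soil after sowing, before emergence, as an aqueous acetone spray (about 0.0156–0.500 kg/ha), and cups were kept in a greenhouse for 4–5 weeks.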
# [6] = system: IPOSS (Morningglory Spp.); assay: Preemergence herbicidal evaluation; assay type: in vivo, Ipomoea Spp.; conditions: rated 4-5 weeks after treatment
# Excerpt: as §2
# The preemergence herbicidal activity of the test compounds of the present invention is exemplified by the following tests in which the seeds of a variety of monocotyledonous and dicotyledonous plants are separately mixed with potting soil and planted on top of approximately one inch of soil in separate pint cups. After planting, the cups are sprayed with the selected aqueous acetone solution containing test compound in sufficient quantity to provide the equivalent of about 0.0156 to 0.500 kg per hectare of test compound per cup. The treated cups are then placed on greenhouse benches, watered and cared for in accordance with conventional greenhouse procedures. From four to five weeks after treatment, the tests are terminated and each cup is examined and rated according to the rating system provided in Example 37.
# The compounds evaluated are reported by compound number given in Example 37.
# [7] = system: MOOVA (Monochoria); assay: Postemergence weed control under flooded paddy conditions; assay type: in vivo, Monochoria vaginalis; conditions: postemergence weeds
# Outline: (§3)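 With weeds 3 to 5 cm tall and rice at the 1.5 to 2.5 leaf stage, containers were flooded and water held 1.5 to 3 cm above soil. Compounds in 50/50 v/v aqueous/acetone went into the flood water at about 0.0313 to 0.500 kg/ha a.i. Effects were visually rated 0–9 against controls after three to four weeks in the greenhouse.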
# [8] = system: SAGPY (Arrowhead (Pygmaea)); assay: as above; assay type: in vivo, Sagittaria pygmaea; conditions: postemergence weeds
# Outline: as §3
# [9] = system: ORYSAT (Rice, Tebonnet); assay: Rice tolerance to post-transplant applications, flooded paddy conditions (Table III); assay type: in vivo, Oryza sativa, (L.) Tebonnet; conditions: post-transplant rice, flooded paddy, rated 3-4 weeks after treatment
# Outline: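 Two ten-day-old Tebonnet seedlings transplanted into flooded silt loam (water 1.5 to 3 cm above soil); three days later the water surface was treated with compound in aqueous/acetone 50/50 at about 0.0313 to 0.500 kg/ha. Visual 0-9 injury rating versus control after three to four weeks in greenhouse.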
# [10] = system: ORYSAT (Rice, Tebonnet); assay: Rice tolerance to post-transplant applications, flooded paddy conditions (Table IV); assay type: in vivo, Oryza sativa, (L.) Tebonnet; conditions: flooded paddy, post-transplant rice, rated 3 to 4 weeks after treatment
# Outline: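 Herbicidal effect is judged by eye on a 0–9 scale versus control, 3–4 weeks after dosing. Dosing is into flood water kept 1.5–3 cm over the soil, at about 0.0313–0.500 kg/ha in aqueous/acetone 50/50 v/v, on 3–5 cm weeds and 1.5–2.5-leaf rice seedlings.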
# [11] = rate 0.0313 kg/ha, 3-4 weeks after treatment
# [12] = rate 0.0625 kg/ha, 3-4 weeks after treatment
# [13] = rate 0.1250 kg/ha, 3-4 weeks after treatment
# [14] = rate 0.2500 kg/ha, 3-4 weeks after treatment
# [15] = rate 0.5000 kg/ha, 3-4 weeks after treatment
# [16] = Rate 0.0313 kg/ha, rated 3 to 4 weeks after treatment
# [17] = Rate 0.0625 kg/ha, rated 3 to 4 weeks after treatment
# [18] = Rate 0.1250 kg/ha, rated 3 to 4 weeks after treatment
# [19] = Rate 0.2500 kg/ha, rated 3 to 4 weeks after treatment
smiles,measurement,setting,value
"C=CCN1C(=O)CSC1=Nc1cc(N2C(=O)C3=C(CCCC3)C2=O)c(F)cc1Cl [Compound 2, N-{5-[(3-allyl-4-oxo-2-thiazolidinylidene)amino]-4-chloro-2-fluorophenyl}-1-cyclohexene-1,2-dicarboximide]",AMBEL herbicidal rating,[1]; rate 0.0157 kg/ha,4.0
same,AMBEL herbicidal rating,[1]; rate 0.0313 kg/ha,2.0
same,AMBEL herbicidal rating,[1]; rate 0.0625 kg/ha,6.0
same,AMBEL herbicidal rating,[1]; rate 0.1250 kg/ha,2.0
same,AMBEL herbicidal rating,[1]; rate 0.2500 kg/ha,6.0
same,AMBEL herbicidal rating,[1]; rate 0.5000 kg/ha,9.0
same,GALAP herbicidal rating,[2]; rate 0.0157 kg/ha,4.0
same,GALAP herbicidal rating,[2]; rate 0.0313 kg/ha,8.0
same,GALAP herbicidal rating,[2]; rate 0.0625 kg/ha,4.0
same,GALAP herbicidal rating,[2]; rate 0.1250 kg/ha,4.0
same,GALAP herbicidal rating,[2]; rate 0.2500 kg/ha,4.0
same,GALAP herbicidal rating,[2]; rate 0.5000 kg/ha,4.0
same,IPOSS herbicidal rating,[3]; rate 0.0157 kg/ha,4.0
same,IPOSS herbicidal rating,[3]; rate 0.0313 kg/ha,4.0
same,IPOSS herbicidal rating,[3]; rate 0.0625 kg/ha,4.0
same,IPOSS herbicidal rating,[3]; rate 0.1250 kg/ha,6.0
same,IPOSS herbicidal rating,[3]; rate 0.2500 kg/ha,9.0
same,IPOSS herbicidal rating,[3]; rate 0.5000 kg/ha,9.0
same,TRZAWR herbicidal rating,[4]; rate 0.0157 kg/ha,1.5
same,TRZAWR herbicidal rating,[4]; rate 0.0313 kg/ha,2.5
same,TRZAWR herbicidal rating,[4]; rate 0.0625 kg/ha,3.0
same,TRZAWR herbicidal rating,[4]; rate 0.1250 kg/ha,2.5
same,TRZAWR herbicidal rating,[4]; rate 0.2500 kg/ha,2.5
same,TRZAWR herbicidal rating,[4]; rate 0.5000 kg/ha,3.0
same,CHEAL preemergence herbicidal rating,[5]; rate 0.0313 kg/ha,7.0
same,CHEAL preemergence herbicidal rating,[5]; rate 0.2500 kg/ha,9.0
same,CHEAL preemergence herbicidal rating,[5]; rate 0.5000 kg/ha,9.0
same,IPOSS preemergence herbicidal rating,[6]; rate 0.0313 kg/ha,0.0
same,IPOSS preemergence herbicidal rating,[6]; rate 0.0625 kg/ha,0.0
same,IPOSS preemergence herbicidal rating,[6]; rate 0.1250 kg/ha,0.0
same,IPOSS preemergence herbicidal rating,[6]; rate 0.2500 kg/ha,0.0
same,IPOSS preemergence herbicidal rating,[6]; rate 0.5000 kg/ha,0.0
same,Herbicidal rating MOOVA,[7]; [11],2.0
same,Herbicidal rating MOOVA,[7]; [12],4.5
same,Herbicidal rating MOOVA,[7]; [13],5.5
same,Herbicidal rating MOOVA,[7]; [14],9.0
same,Herbicidal rating MOOVA,[7]; [15],9.0
same,Herbicidal rating SAGPY,[8]; [11],0.0
same,Herbicidal rating SAGPY,[8]; [12],0.0
same,Herbicidal rating SAGPY,[8]; [13],0.0
same,Herbicidal rating SAGPY,[8]; [14],0.0
same,Herbicidal rating SAGPY,[8]; [15],1.0
"C=CCN1C(=O)C(CC(=O)OCCF)SC1=Nc1cc(-n2c(=O)cc(C(F)(F)F)n(C)c2=O)c(F)cc1Cl (stereo not drawn) [Compound 86, 2-Fluoroethyl 3-allyl-2-{{2-chloro-5-[3,6-dihydro-3-methyl-2,6-dioxo-4-(trifluoromethyl)-1(2H)-pyrimidinyl]-4-fluorophenyl}imino}-4-oxo-5-thiazolidineacetate]",AMBEL herbicidal rating,[1]; rate 0.0156 kg/ha,9.0
same,AMBEL herbicidal rating,[1]; rate 0.0313 kg/ha,9.0
same,AMBEL herbicidal rating,[1]; rate 0.0625 kg/ha,9.0
same,AMBEL herbicidal rating,[1]; rate 0.1250 kg/ha,9.0
same,GALAP herbicidal rating,[2]; rate 0.0156 kg/ha,2.0
same,GALAP herbicidal rating,[2]; rate 0.0313 kg/ha,5.0
same,GALAP herbicidal rating,[2]; rate 0.0625 kg/ha,9.0
same,GALAP herbicidal rating,[2]; rate 0.1250 kg/ha,9.0
same,TRZAWR herbicidal rating,[4]; rate 0.0156 kg/ha,6.0
same,TRZAWR herbicidal rating,[4]; rate 0.0313 kg/ha,7.0
same,TRZAWR herbicidal rating,[4]; rate 0.0625 kg/ha,7.5
same,TRZAWR herbicidal rating,[4]; rate 0.1250 kg/ha,8.5
same,CHEAL rating,[5]; 0.0156 kg/ha,4.0
same,CHEAL rating,[5]; 0.0313 kg/ha,4.0
same,CHEAL rating,[5]; 0.0625 kg/ha,9.0
same,CHEAL rating,[5]; 0.1250 kg/ha,9.0
same,CHEAL rating,[5]; 0.2500 kg/ha,9.0
same,CHEAL rating,[5]; 0.5000 kg/ha,9.0
same,ORYSAT herbicidal effect rating (rice tolerance),[9]; 0.0313 kg/ha,3.0
same,ORYSAT herbicidal effect rating (rice tolerance),[9]; 0.0625 kg/ha,4.0
same,ORYSAT herbicidal effect rating (rice tolerance),[9]; 0.1250 kg/ha,4.0
same,ORYSAT herbicidal effect rating (rice tolerance),[9]; 0.2500 kg/ha,5.0
same,Herbicidal rating MOOVA,[7]; [16],9.0
same,Herbicidal rating MOOVA,[7]; [17],9.0
same,Herbicidal rating MOOVA,[7]; [18],9.0
same,Herbicidal rating MOOVA,[7]; [19],9.0
same,Herbicidal rating SAGPY,[8]; [16],5.0
same,Herbicidal rating SAGPY,[8]; [17],9.0
same,Herbicidal rating SAGPY,[8]; [18],9.0
same,Herbicidal rating SAGPY,[8]; [19],9.0
same,Herbicidal rating ORYSAT (rice tolerance),[10]; Rate 0.0313 kg/ha,3.0
same,Herbicidal rating ORYSAT (rice tolerance),[10]; Rate 0.0625 kg/ha,4.0
same,Herbicidal rating ORYSAT (rice tolerance),[10]; Rate 0.1250 kg/ha,4.0
same,Herbicidal rating ORYSAT (rice tolerance),[10]; Rate 0.2500 kg/ha,5.0
"CN1C(=O)C(CC(=O)OCCF)SC1=Nc1cc(-n2c(=O)cc(C(F)(F)F)n(C)c2=O)c(F)cc1Cl (stereo not drawn) [Compound 93, 2-Fluoroethyl 2-{{2-chloro-5-[3,6-dihydro-3-methyl-2,6-dioxo-4-(trifluoromethyl)-1(2H)-pyrimidinyl]-4-fluorophenyl}imino}-3-methyl-4-oxo-5-thiazolidineacetate]",AMBEL herbicidal rating,[1]; rate 0.0158 kg/ha,9.0
same,AMBEL herbicidal rating,[1]; rate 0.0315 kg/ha,9.0
same,AMBEL herbicidal rating,[1]; rate 0.0630 kg/ha,9.0
same,GALAP herbicidal rating,[2]; rate 0.0158 kg/ha,0.0
same,GALAP herbicidal rating,[2]; rate 0.0315 kg/ha,5.0
same,GALAP herbicidal rating,[2]; rate 0.0630 kg/ha,6.0
same,TRZAWR herbicidal rating,[4]; rate 0.0158 kg/ha,5.0
same,TRZAWR herbicidal rating,[4]; rate 0.0315 kg/ha,6.0
same,TRZAWR herbicidal rating,[4]; rate 0.0630 kg/ha,7.5
same,CHEAL rating,[5]; 0.0313 kg/ha,3.0
same,CHEAL rating,[5]; 0.0625 kg/ha,9.0
same,CHEAL rating,[5]; 0.1250 kg/ha,9.0
same,CHEAL rating,[5]; 0.2500 kg/ha,9.0
same,ORYSAT herbicidal effect rating (rice tolerance),[9]; 0.0313 kg/ha,0.0
same,ORYSAT herbicidal effect rating (rice tolerance),[9]; 0.0625 kg/ha,0.0
same,ORYSAT herbicidal effect rating (rice tolerance),[9]; 0.1250 kg/ha,0.0
same,ORYSAT herbicidal effect rating (rice tolerance),[9]; 0.2500 kg/ha,3.0
same,Herbicidal rating MOOVA,[7]; [16],9.0
same,Herbicidal rating MOOVA,[7]; [17],9.0
same,Herbicidal rating MOOVA,[7]; [18],9.0
same,Herbicidal rating MOOVA,[7]; [19],9.0
same,Herbicidal rating SAGPY,[8]; [16],0.0
same,Herbicidal rating SAGPY,[8]; [17],0.0
same,Herbicidal rating SAGPY,[8]; [18],3.0
same,Herbicidal rating SAGPY,[8]; [19],9.0
same,Herbicidal rating ORYSAT (rice tolerance),[10]; Rate 0.0313 kg/ha,0.0
same,Herbicidal rating ORYSAT (rice tolerance),[10]; Rate 0.0625 kg/ha,0.0
same,Herbicidal rating ORYSAT (rice tolerance),[10]; Rate 0.1250 kg/ha,0.0
same,Herbicidal rating ORYSAT (rice tolerance),[10]; Rate 0.2500 kg/ha,3.0
